Patent US6391876B1 (Pharmacia and Upjohn Company, priority 1998, dated 2002)

Columns and labels:
[1] = tested on: patients with panic Disorder with or without Agoraphobia
I-adrenerigic receptors = test: interaction with I-adrenerigic receptors; format: binding
[2] = tested on: patients with a DSM-III-R diagnosis of Obsessive Compulsive Disorder; test: trial in patients with Obsessive Compulsive Disorder; format: in vivo, human; conditions: 10 OCD patients, 3 to 4 weeks, 6 mg first week then 8 mg per day
monoamine oxidase (MAO) = tested on: monoamine oxidase (MAO)
Description: (§1) Leonard-BE, “Noradrenaline in basic models of depression.” European-Neuropsychopharmacol. April 1997; 7 Suppl 1: S11-6; discussion S71-3.

serotonin uptake = tested on: serotonin uptake
Description: as §1

dopamine uptake = tested on: dopamine uptake
Description: as §1

norepinephrine uptake = tested on: norepinephrine uptake
Description: as §1

[3] = tested on: muscarinic cholinergic receptors; test: interaction with muscarinic cholinergic receptors; format: binding
[4] = in vivo; cited from earlier work
[5] = vs placebo, at some point in time

## CCOc1ccccc1OC(c1ccccc1)C1CNCCO1 (stereo not drawn) [reboxetine]
[1]; 37 patients on reboxetine vs 38 on placebo
  mean number of major panic attacks: significantly lower than for those on placebo
[1]; [5]
  anticipatory anxiety: better
  phobic symptoms: better
  social and family adjustment: better
I-adrenerigic receptors
  interaction with I-adrenerigic receptors: without showing any appreciable interaction
[2]
  patients judged minimally improved at CGI last assessment: 2
  patients judged much improved at CGI last assessment: 4
  patients judged very much improved at CGI last assessment: one
  patients unchanged at CGI last assessment: 3
Monoamine oxidase (MAO)
  monoamine oxidase (MAO) inhibitory activity: devoid of monoamine oxidase (MAO) inhibitory activity
Serotonin uptake
  serotonin uptake inhibitory activity: only marginal
Dopamine uptake
  dopamine uptake inhibitory activity: no dopamine uptake inhibitory activity
Norepinephrine uptake
  norepinephrine uptake inhibitory activity: highly selective norepinephrine uptake inhibitor
[3]
  interaction with muscarinic cholinergic receptors: without showing any appreciable interaction
[4]
  effect in the 8-OH-DPAT hypothermia test: ineffective
